Read-outs that look alike come from different tables or passages of the source. *1 amine or outer side, *2 acyl side, *3 side chain or, on linkers, in order; H or OH if unused. Where a SMILES comes first, the peptide text is derived from it. Bridges are numbered along the chain shown (N, C = ends). [ ]: non-standard residue; d: D form. Tle = CC(C)(C)[C@H](N)C(=O)O; dDab = NCC[C@@H](N)C(=O)O; hCys = N[C@@H](CCS)C(=O)O; Dab = NCC[C@H](N)C(=O)O; Dap = NC[C@H](N)C(=O)O; CO = O=C([*:1])[*:2]
Key:
Type in all cases: cell-based
[1] = system: human red blood cells (hRBC); assay: Hemolysis of human red blood cells
Protocol: Stock solutions were kept at +4° C., light protected.
Percent hemolysis was calculated as follows: (OD540peptide/OD540H2O)×100%.

[2] = system: Acinetobacter baumannii DSM 30008
Outline: (§1)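 Peptide activity was tested by NCCLS broth microdilution with slight modifications. Bacteria were diluted in cation-adjusted Mueller-Hinton II broth to approximately 10^6 CFU/mL against a 0.5 McFarland standard. They were then exposed to two-fold serial peptide dilutions in broth containing 0.002% final polysorbate 80.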

[3] = system: Klebsiella pneumoniae ATCC 13883
Outline: as §1

[4] = system: Escherichia coli ATCC 25922
Outline: as §1

[5] = Mueller-Hinton broth II, 0.002% P-80, 18-20 hours at 35° C.

Acinetobacter baumannii DSM 30008 MIC ([2]; DSM 30008) [µg/mL]	Klebsiella pneumoniae ATCC 13883 MIC ([3]; ATCC 13883) [µg/mL]	Escherichia coli ATCC 25922 MIC ([4]; ATCC 25922) [µg/mL]	Compound	Hemolysis at 100 μg/mL ([1]; red cells of human, 1 h, 100) [%]	Hemolysis at 100 μg/mL ([1]; 100 μg/mL, 20% hRBC (v/v), 1 h at 37° C.) [%]	Acinetobacter baumannii DSM 30008 MIC [2, 5] [µg/mL]	Klebsiella pneumoniae ATCC 13883 MIC [3, 5] [µg/mL]	Escherichia coli ATCC 25922 MIC [4, 5] [µg/mL]
–	–	–	CC(C)[C@@H]1NC(=O)[C@@H]2CCCN2C(=O)[C@H]2CCCN2C(=O)[C@H](CO)NC(=O)[C@H]2CSSC[C@@H](NC1=O)C(=O)N[C@@H](Cc1ccc(O)cc1)C(=O)N[C@@H](CCN)C(=O)N[C@@H](CN)C(=O)N[C@H](CCN)C(=O)N[C@@H](CCN)C(=O)N[C@@H](Cc1c[nH]c3ccccc13)C(=O)N[C@@H](CCN)C(=O)N[C@@H](C(C)(C)C)C(=O)N2 [Example 38, cyclo(-Val-^DCys-Tyr-Dab-Dap-^DDab-Dab-Trp-Dab-tBuGly-^DCys-Ser-^DPro-Pro-)] (cyclo(V[dC]Y[Dab][Dap][dDab][Dab]W[Dab][Tle][dC]S[dP]P); disulfide 2-11)	–	2	2	2	4
2	1	1	CC(C)[C@@H]1NC(=O)[C@@H]2CCCN2C(=O)[C@H]2CCCN2C(=O)[C@H](CO)NC(=O)[C@@H]2CSSCC[C@H](NC1=O)C(=O)N[C@@H](Cc1ccc(O)cc1)C(=O)N[C@@H](CCN)C(=O)N[C@@H](CN)C(=O)N[C@H](CCN)C(=O)N[C@@H](CCN)C(=O)N[C@@H](Cc1c[nH]c3ccccc13)C(=O)N[C@@H](CCN)C(=O)N[C@@H](C(C)(C)C)C(=O)N2 [Example 39, cyclo(-Val-Hcy-Tyr-Dab-Dap-^DDab-Dab-Trp-Dab-tBuGly-Cys-Ser-^DPro-Pro-)] (cyclo(V[hCys]Y[Dab][Dap][dDab][Dab]W[Dab][Tle]CS[dP]P); disulfide 2-11)	2	–	–	–	–
1	0.5	0.5	CC(C)C[C@@H]1NC(=O)[C@@H]2CCCN2C(=O)[C@H]2CCCN2C(=O)[C@H](CO)NC(=O)[C@@H]2CCCCNC(=O)C[C@H](NC1=O)C(=O)N[C@@H](Cc1ccc(O)cc1)C(=O)N[C@@H](CCN)C(=O)N[C@@H](CCCN)C(=O)N[C@H](CCN)C(=O)N[C@@H](CCN)C(=O)N[C@@H](Cc1c[nH]c3ccccc13)C(=O)N[C@@H](CCN)C(=O)N[C@@H](C(C)(C)C)C(=O)N2 [Example 24, cyclo(-Leu-Asp-Tyr-Dab-Orn-^DDab-Dab-Trp-Dab-tBuGly-Lys-Ser-^DPro-Pro-)] (HELM PEPTIDE1{L.D.Y.[Dab].[Orn].[NCC[C@@H](N[*:1])C(=O)[*:2]].[Dab].W.[Dab].[CC(C)(C)[C@H](N[*:1])C(=O)[*:2]].K.S.[dP].P}$PEPTIDE1,PEPTIDE1,2:R3-11:R3|PEPTIDE1,PEPTIDE1,1:R1-14:R2$$$V2.0)	0.5	–	–	–	–
0.5	0.25	0.25	CC(C)(C)[C@@H]1NC(=O)[C@H](CCN)NC(=O)[C@H](Cc2c[nH]c3ccccc23)NC(=O)[C@H](CCN)NC(=O)[C@@H](CCN)NC(=O)[C@H](CCN)NC(=O)[C@H](CCN)NC(=O)[C@H](Cc2ccc(O)cc2)NC(=O)[C@@H]2CCNC(=O)C[C@H](NC1=O)C(=O)N[C@@H](CO)C(=O)N1CCC[C@@H]1C(=O)N1CCC[C@H]1C(=O)N[C@@H](Cc1c[nH]c3ccccc13)C(=O)N2 [Example 14, cyclo(-Trp-Dab-Tyr-Dab-Dab-^DDab-Dab-Trp-Dab-tBuGly-Asp-Ser-^DPro-Pro-)] (HELM PEPTIDE1{W.[Dab].Y.[Dab].[Dab].[NCC[C@@H](N[*:1])C(=O)[*:2]].[Dab].W.[Dab].[CC(C)(C)[C@H](N[*:1])C(=O)[*:2]].D.S.[dP].P}$PEPTIDE1,PEPTIDE1,2:R3-11:R3|PEPTIDE1,PEPTIDE1,1:R1-14:R2$$$V2.0)	2	–	–	–	–
2	1	1	CC(C)C[C@@H]1NC(=O)[C@@H]2CCCN2C(=O)[C@H]2CCCN2C(=O)[C@H](CO)NC(=O)[C@@H]2CCCCNC(=O)C[C@H](NC1=O)C(=O)N[C@@H](Cc1ccc(O)cc1)C(=O)N[C@@H](CCN)C(=O)N[C@@H](CCCN)C(=O)N[C@@H](CCN)C(=O)N[C@@H](CCN)C(=O)N[C@@H](Cc1c[nH]c3ccccc13)C(=O)N[C@@H](CCN)C(=O)N[C@@H](C(C)(C)C)C(=O)N2 [Example 25, cyclo(-Leu-Asp-Tyr-Dab-Orn-Dab-Dab-Trp-Dab-tBuGly-Lys-Ser-^DPro-Pro-)] (HELM PEPTIDE1{L.D.Y.[Dab].[Orn].[Dab].[Dab].W.[Dab].[CC(C)(C)[C@H](N[*:1])C(=O)[*:2]].K.S.[dP].P}$PEPTIDE1,PEPTIDE1,2:R3-11:R3|PEPTIDE1,PEPTIDE1,1:R1-14:R2$$$V2.0)	0	–	–	–	–
1	0.5	0.5	CC(C)C[C@@H]1NC(=O)[C@@H]2CCCN2C(=O)[C@H]2CCCN2C(=O)[C@H](CO)NC(=O)[C@@H]2CCNC(=O)C[C@H](NC1=O)C(=O)N[C@@H](Cc1ccc(O)cc1)C(=O)N[C@@H](CCN)C(=O)N[C@@H](CCCN)C(=O)N[C@H](CCN)C(=O)N[C@@H](CCN)C(=O)N[C@@H](Cc1c[nH]c3ccccc13)C(=O)N[C@@H](CCN)C(=O)N[C@@H](C(C)(C)C)C(=O)N2 [Example 22, cyclo(-Leu-Asp-Tyr-Dab-Orn-^DDab-Dab-Trp-Dab-tBuGly-Dab-Ser-^DPro-Pro-)] (HELM PEPTIDE1{L.D.Y.[Dab].[Orn].[NCC[C@@H](N[*:1])C(=O)[*:2]].[Dab].W.[Dab].[CC(C)(C)[C@H](N[*:1])C(=O)[*:2]].[Dab].S.[dP].P}$PEPTIDE1,PEPTIDE1,2:R3-11:R3|PEPTIDE1,PEPTIDE1,1:R1-14:R2$$$V2.0)	1.5	–	–	–	–
1	0.25	0.25	CC(C)[C@@H]1NC(=O)[C@@H]2CCCN2C(=O)[C@H]2CCCN2C(=O)[C@H](CO)NC(=O)[C@@H]2CNC(=O)NC[C@H](NC1=O)C(=O)N[C@@H](Cc1ccc(O)cc1)C(=O)N[C@@H](CCN)C(=O)N[C@@H](CN)C(=O)N[C@H](CCN)C(=O)N[C@@H](CCN)C(=O)N[C@@H](Cc1c[nH]c3ccccc13)C(=O)N[C@@H](CCN)C(=O)N[C@@H](C(C)(C)C)C(=O)N2 [Example 40, cyclo(-Val-Dap-Tyr-Dab-Dap-^DDab-Dab-Trp-Dab-tBuGly-Dap-Ser-^DPro-Pro-)] (cyclo(V[Dap]Y[Dab][Dap][dDab][Dab]W[Dab][Tle][Dap]S[dP]P); linker 2-11 via CO)	2	–	–	–	–

Compound	Acinetobacter baumannii DSM 30008 MIC ([2]; DSM 30008) [µg/mL]	Klebsiella pneumoniae ATCC 13883 MIC ([3]; ATCC 13883) [µg/mL]	Escherichia coli ATCC 25922 MIC ([4]; ATCC 25922) [µg/mL]	Hemolysis at 100 μg/mL ([1]; red cells of human, 1 h, 100) [%]	Hemolysis at 100 μg/mL ([1]; 100 μg/mL, 20% hRBC (v/v), 1 h at 37° C.) [%]	Acinetobacter baumannii DSM 30008 MIC [2, 5] [µg/mL]	Klebsiella pneumoniae ATCC 13883 MIC [3, 5] [µg/mL]	Escherichia coli ATCC 25922 MIC [4, 5] [µg/mL]
CC(C)C[C@@H]1NC(=O)[C@H](CN)NC(=O)[C@H]2CCCN2C(=O)[C@H](C(C)C)NC(=O)[C@@H]2CSSC[C@H](NC1=O)C(=O)N[C@@H](Cc1ccc(O)cc1)C(=O)N[C@@H](C)C(=O)N[C@@H](CCCN)C(=O)N[C@H](CCN)C(=O)N[C@@H](CCN)C(=O)N[C@@H](Cc1c[nH]c3ccccc13)C(=O)N[C@@H](C)C(=O)N[C@@H](C(C)C)C(=O)N2 [Example 6, cyclo(-Leu-Cys-Tyr-Ala-Orn-^DDab-Dab-Trp-Ala-Val-Cys-Val-^DPro-Dap-)] (HELM PEPTIDE1{A.[Orn].[NCC[C@@H](N[*:1])C(=O)[*:2]].[Dab].W.A.V.C.V.[dP].[NC[C@H](N[*:1])C(=O)[*:2]].L.C.Y}$PEPTIDE1,PEPTIDE1,8:R3-13:R3|PEPTIDE1,PEPTIDE1,1:R1-14:R2$$$V2.0)	1.5	2	2	5	–	–	–	–
CC[C@H](C)[C@@H]1NC(=O)[C@H](Cc2ccc(O)cc2)NC(=O)[C@H]2CCCN2C(=O)[C@H](CO)NC(=O)[C@@H]2CSSC[C@H](NC1=O)C(=O)N[C@@H](Cc1ccc(O)cc1)C(=O)N[C@@H](CCN)C(=O)N[C@@H](CCCN)C(=O)N[C@H](CCN)C(=O)N[C@@H](CCN)C(=O)N[C@@H](Cc1c[nH]c3ccccc13)C(=O)N[C@@H](CCN)C(=O)N[C@@H](C(C)(C)C)C(=O)N2 [Example 11, cyclo(-Ile-Cys-Tyr-Dab-Orn-^DDab-Dab-Trp-Dab-tBuGly-Cys-Ser-^DPro-Tyr-)] (HELM PEPTIDE1{C.S.[dP].Y.I.C.Y.[Dab].[Orn].[NCC[C@@H](N[*:1])C(=O)[*:2]].[Dab].W.[Dab].[CC(C)(C)[C@H](N[*:1])C(=O)[*:2]]}$PEPTIDE1,PEPTIDE1,1:R3-6:R3|PEPTIDE1,PEPTIDE1,1:R1-14:R2$$$V2.0)	1	0.5	2	1	–	–	–	–
CC(C)C[C@@H]1NC(=O)[C@H](CCN)NC(=O)[C@H]2CCCN2C(=O)[C@H](C(C)C)NC(=O)[C@@H]2CSSC[C@H](NC1=O)C(=O)N[C@@H](Cc1ccc(O)cc1)C(=O)N[C@@H](C)C(=O)N[C@@H](CCCN)C(=O)N[C@H](CCN)C(=O)N[C@@H](CCN)C(=O)N[C@@H](Cc1c[nH]c3ccccc13)C(=O)N[C@@H](C)C(=O)N[C@@H](C(C)C)C(=O)N2 [Example 5, cyclo(-Leu-Cys-Tyr-Ala-Orn-^DDab-Dab-Trp-Ala-Val-Cys-Val-^DPro-Dab-)] (HELM PEPTIDE1{A.[Orn].[NCC[C@@H](N[*:1])C(=O)[*:2]].[Dab].W.A.V.C.V.[dP].[Dab].L.C.Y}$PEPTIDE1,PEPTIDE1,8:R3-13:R3|PEPTIDE1,PEPTIDE1,1:R1-14:R2$$$V2.0)	1	2	2	3	–	–	–	–
